Experimental data from patent US11446346B2, “Gastroretentive sustained release formulations of Bergenia ciliata” (COUNCIL OF SCIENTIFIC & INDUSTRIAL RESEARCH, priority 2017, dated 2022).
Read-outs that look alike come from different tables or passages of the source.

Assays:
in vivo = assay: in vivo; set-up: species or system SD rats; conditions: rat
Experimental: The study was performed in male SD rats. To determine oral bioavailability of bergenin, the bergenin was administered at 5 mg/kg by IV route and at 50 mg/kg by oral route. For comparative oral pharmacokinetic study of plain extract (IIIM-160-A002) and GRSR formulation (filled in 9el capsules), the dose equivalent to 6.2 mg/kg of bergenin was administered in SD rats in both these groups. Blood samples were collected (n=3/time point) at 0.083 (IV only), 0.25, 0.5, 1, 2, 4, 8 and 24 h, post-dose. At each time point about 200 μL of blood was collected by jugular vein into a labeled microfuge tube containing 200 mM K2EDTA solution (20 μL per mL of blood) and equivalent volume of heparinized saline was replaced following sample collection. The blood samples were processed to obtain the plasma samples within 30 min of scheduled sampling time. All plasma samples were stored below −60° C. until bioanalysis. The plasma samples were analyzed for bergenin content using a fit-for purpose LC-MS/MS method with a lower limit of quantification (LLOQ) of 9.95 ng/mL. The pharmacokinetic parameters of bergenin were calculated using the non-compartmental analysis tool of validated Phoenix® WinNonlin® software (version 6.3).

TNF-α = assay: In-vitro cytokine inhibition in LPS-treated THP-1 cells (ELISA), TNF-α; format: cell-based, human; conditions: LPS 1 μg/ml, 24 h, sample 12.5 μg/mL
Experimental: (§1) For the in vitro analysis of pro-inflammatory cytokines (IL-6 and TNF-α), human leukemia THP-1 cells were seeded in a 24-well plate at a density of 4×10^5 cells/ml of RPMI medium per well. THP-1 cells were then treated with phorbol 12-myristate 13-acetate (20 ng/ml) for differentiation into macrophages for 18 h followed by a rest period of 48 h. Cells were further co-treated with test samples and 1 μg/ml of lipopolysaccharide (LPS) in a serum-free medium. Culture supernatant was harvested after 24 h for analysis of different cytokines by using OptEIA ELISA Kits from BD Biosciences. Total protein content for all the samples was calculated by using Bradford reagent from Bio-Rad Laboratories. All the samples were normalized by dividing cytokine concentration with total quantity of protein. Bergenin was reported earlier as an inhibitor of TNF-alpha and IL-6 and was therefore was used as a positive control in this assay.

IL-6 = assay: In-vitro cytokine inhibition in LPS-treated THP-1 cells (ELISA), IL-6; format: cell-based, human; conditions: LPS 1 μg/ml, 24 h, sample 12.5 μg/mL
Experimental: as §1

[1] = pH dependent stability of bergenin (HPLC, 24 h); format: physicochemical; conditions: at pH 7.4 and above
Experimental: The stability study was performed in pH 1.2 buffer, pH 4.0 buffer, phosphate buffer pH 6.8, phosphate buffered saline pH 7.4, SGF (pH 1.2), SIF (pH 6.8) and plasma. The % of bergenin hydrolyzed after 24 h was determined by HPLC analysis. The HPLC analysis was carried out using the method as described in example 2.

[2] = cited from earlier work
[3] = rats; cited from earlier work

With `COc1c(O)cc2c(c1O)[C@@H]1O[C@H](CO)[C@@H](O)[C@H](O)[C@H]1OC2=O` [Bergenin, bergenin] the bioavailability (in vivo; male, SD) was 3%, the AUC(0-t) (in vivo; male, SD, iv, 5 mg/kg) was 874 ng·h/mL and the clearance (in vivo; male, SD, iv, 5 mg/kg) was 95.5 mL/min/kg. For the same compound, the half-life (in vivo; male, SD, iv, 5 mg/kg) was 0.318 h, the “volume of distribution relative to normal total body water content (0.7 L/kg in rats)” value (in vivo; male, SD, iv, 5 mg/kg) was roughly 1.50 fold and the AUC(0-t) (in vivo; male, SD, po, 50 mg/kg) was 269 ng·h/mL. The Cmax (in vivo; male, SD, po, 50 mg/kg) was 170 ng/mL, the half-life (in vivo; male, SD, po, 50 mg/kg) was 1.74 h and the “median time to reach the maximum plasma concentration” value (in vivo; male, SD, po, 50 mg/kg) was 0.25 h. The “clearance relative to normal hepatic blood flow (55 mL/min/kg in rats)” value (in vivo; iv, 5 mg/kg) was roughly 1.74 folds, the inhibition at 12.5 µg/mL (TNF-α; Homo sapiens) was 61% and the “TNF-α (pg/mL)/total protein (μg)” value (TNF-α) was 2.40 ± 0.25 (pg/mL)/total protein (μg). The inhibition at 12.5 µg/mL (IL-6; Homo sapiens) was 98%, the “IL-6 (pg/mL)/total protein (μg)” value (IL-6) was 0.08 ± 0.107 (pg/mL)/total protein (μg) and the “hydrolysis of bergenin after 24 h” value [1] was “gets hydrolyzed to its lactone ring opened product”. For the same compound, the “stability at acidic pH of stomach” value ([2]; pH 1.2) was “stable”, the “stability at intestinal pH” value ([2]; pH 6.8 and above) was “gets degraded” and the degradation half life ([2]; pH 7) was 14.4 h. For the same compound, the degradation half life ([2]; pH 8) was 2.9 h and the “plasma half-life (t1/2)” value [3] was 1 to 2 h.
